Measured values taken from patent publication US8058242B2, “Chimeric proteins with natriuretic activity” (The University of Queensland, priority 2004, dated 2011).
Positions of bridges follow the written chain, without caps; N, C: chain ends. Residues, ends and D or L forms follow the SMILES beside them.

What was measured:
[1] = target: T1, Natriuretic Peptide Receptor-A (NPR-A) signaling in MDCK cells (Canis lupus familiaris, UniProt A0A8I3MHU3); assay type: cell-based, canine; details: stimulation of cGMP accumulation in MDCK cells; for EC50: read-out: EC50 (M) ± Standard Error
T1 sequence (A0A8I3MHU3 32-1060): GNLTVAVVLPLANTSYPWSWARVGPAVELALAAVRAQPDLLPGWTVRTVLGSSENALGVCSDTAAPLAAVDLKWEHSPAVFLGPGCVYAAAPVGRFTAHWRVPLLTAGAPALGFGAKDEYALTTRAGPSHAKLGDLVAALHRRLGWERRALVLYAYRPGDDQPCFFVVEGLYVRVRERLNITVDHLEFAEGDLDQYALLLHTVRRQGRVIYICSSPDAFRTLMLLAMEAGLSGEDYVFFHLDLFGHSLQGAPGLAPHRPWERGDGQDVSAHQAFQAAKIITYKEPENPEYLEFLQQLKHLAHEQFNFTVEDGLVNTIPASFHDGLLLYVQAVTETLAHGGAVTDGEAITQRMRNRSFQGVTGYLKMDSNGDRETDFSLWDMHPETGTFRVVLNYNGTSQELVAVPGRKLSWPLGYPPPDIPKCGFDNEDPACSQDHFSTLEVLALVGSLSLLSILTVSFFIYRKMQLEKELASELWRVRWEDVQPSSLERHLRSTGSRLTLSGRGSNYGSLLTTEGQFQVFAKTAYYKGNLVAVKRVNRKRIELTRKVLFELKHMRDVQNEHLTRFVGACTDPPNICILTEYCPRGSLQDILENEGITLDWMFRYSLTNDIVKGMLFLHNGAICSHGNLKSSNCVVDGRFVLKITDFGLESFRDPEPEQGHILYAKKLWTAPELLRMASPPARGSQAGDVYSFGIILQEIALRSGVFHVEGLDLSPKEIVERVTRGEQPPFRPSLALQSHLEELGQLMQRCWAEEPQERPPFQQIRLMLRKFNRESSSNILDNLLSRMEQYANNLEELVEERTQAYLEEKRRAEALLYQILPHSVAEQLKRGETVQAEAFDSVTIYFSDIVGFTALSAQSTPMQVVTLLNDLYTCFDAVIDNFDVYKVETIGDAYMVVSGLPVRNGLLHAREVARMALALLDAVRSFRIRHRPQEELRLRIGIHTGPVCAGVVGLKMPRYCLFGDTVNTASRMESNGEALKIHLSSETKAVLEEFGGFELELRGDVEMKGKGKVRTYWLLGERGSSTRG

conscious rabbits = assay: Blood pressure and heart rate in conscious rabbits, intravenous infusion dose-response (Example 8); details: for recovery of MAP, in words: 2 hours after infusion; for MAP at final dose / Recovery (MAP) / Recovery Delta SED (MAP) / Treatment Effect, change of mean blood pressure during the infusion: Table 10B; for Recovery (MAP) / Recovery Delta SED (MAP): after a 2 hour recovery period; for Treatment Effect, change of mean blood pressure during the infusion: final dose, groups 2B and 2C
[2] = system: denuded aortic rings, GC A receptor; assay: Relaxation of noradrenaline constricted endothelium-denuded aortic rings (Example 11); parameters: species or system rat; details: GC-A mediated
Experimental: Male Sprague Dawley rats were killed and the descending thoracic aorta rapidly removed and flushed with physiological solution. After being cleared of adhering fat and connective tissue, 5 mm rings were mounted under 10 g resting tension, between two stainless steel hooks, in organ baths (37° C.) containing carbogenated (95% O2 and 5% CO2) physiological salt solution of the following composition (mM): NaCl, 118.4; NaHCO3, 25; glucose, 11; KCl, 4.7; MgSO4, 1.2; KH2PO4, 1.2 and CaCl2, 2.5. The lower hook was attached to a tissue holder and the upper hook to a force displacement transducer (Grass FTO3). Where indicated endothelial cells were removed by gentle rubbing of the intimal surface with a wire. To confirm the presence or absence of endothelial cells, tissues were precontracted with a sub-maximal concentration of phenylephrine (0.3 μM) and the response to acetylcholine (ACh, 10 μM) observed. Ach-induced relaxation greater than 80% of maximum indicated the presence of endothelium; whereas Ach-induced relaxation less than 10% indicated the absence of endothelium. Ring preparations under resting tension were conditioned by two contraction/relaxation cycles with 40 mM KCl, contracted by a third application of 40 mM KCl and then relaxed with different doses of the venom peptides. Responses were expressed as a percentage relaxation of the precontraction by KCl.
In addition to the peptides tested in example 3, a series of 13 analogs corresponding to the 2a, 2b and 2c grouping of peptides were examined for their ability to dilate noradrenaline constricted aortic rings. The degree of constriction was expressed as a percentage of the KCl induced constriction. The aortic rings were prepared in a manner similar to the method described in example 3. […]. In each case there were at least 3 separate aortic rings tested per peptide and all were denuded of endothelium to ensure responses were confined to the GC A receptor.

| Compound | −Log10 EC50 (pEC50) ± Standard Error [1] | EC50 [1] [M] | recovery of MAP, in words (conscious rabbits) | MAP at final dose (conscious rabbits) [mm Hg] | Recovery (MAP) (conscious rabbits) [mm Hg] | Recovery Delta SED (MAP) (conscious rabbits) [mm Hg] | Treatment Effect, change of mean blood pressure during the infusion (conscious rabbits) [mm Hg] | Mean relaxation SEM of denuded aortic rings expressed as % of KCl response [2] [%] |
| --- | --- | --- | --- | --- | --- | --- | --- | --- |
| CC[C@H](C)[C@H](NC(=O)[C@H](CCCCN)NC(=O)[C@H](CO)NC(=O)[C@H](CC(=O)O)NC(=O)[C@@H](N)CO)C(=O)NCC(=O)N[C@@H](C)C(=O)NCC(=O)N[C@H]1CSSC[C@@H](C(=O)N[C@@H](CC(N)=O)C(=O)N[C@@H](CCCNC(=N)N)C(=O)N[C@H](C(=O)N[C@@H](CCSC)C(=O)N[C@@H](CCC(N)=O)C(=O)N[C@@H](CC(N)=O)C(=O)N2CCC[C@H]2C(=O)N2CCC[C@H]2C(=O)N[C@@H](CCCCN)C(=O)N[C@@H](CCCCN)C(=O)N[C@@H](Cc2ccccc2)C(=O)N[C@@H](CO)C(=O)NCC(=O)N[C@@H](CCC(=O)O)C(=O)O)[C@@H](C)CC)NC(=O)CNC(=O)[C@H](CC(C)C)NC(=O)CNC(=O)[C@H](CO)NC(=O)[C@H](C(C)C)NC(=O)[C@H](CO)NC(=O)CNC(=O)[C@H]([C@@H](C)CC)NC(=O)[C@H](CCCNC(=N)N)NC(=O)[C@H](CC(=O)O)NC(=O)[C@H](CC(C)C)NC(=O)[C@@H]2CCCN2C(=O)[C@H](Cc2ccccc2)NC(=O)CNC(=O)[C@H](Cc2ccccc2)NC1=O [TNPc A7] (H-SDSKIGAGCFGFPLDRIGSVSGLGCNRIMQNPPKKFSGE-OH; disulfide 9-25; N-terminus assumed) | 6.867 ± 0.1915 | 1.61e-07 | did not recover after 2 hours | 64.0 | 71.3 | 7.3 ± 2.9 | −11.2 | 32.9 ± 4.5 |
| CC[C@H](C)[C@@H]1NC(=O)[C@H](CCCNC(=N)N)NC(=O)[C@H](CC(=O)O)NC(=O)[C@H](CC(C)C)NC(=O)[C@@H]2CCCN2C(=O)[C@H](Cc2ccccc2)NC(=O)CNC(=O)[C@H](Cc2ccccc2)NC(=O)[C@@H](NC(=O)CNC(=O)[C@H](CO)NC(=O)CNC(=O)[C@H](CCC(N)=O)NC(=O)[C@@H](NC(=O)[C@H](CCSC)NC(=O)[C@H](CCCCN)NC(=O)[C@@H]2CCCN2C(=O)[C@@H](N)CO)C(C)C)CSSC[C@@H](C(=O)N[C@@H](CC(N)=O)C(=O)N[C@@H](CCCNC(=N)N)C(=O)N[C@H](C(=O)N[C@@H](CCSC)C(=O)N[C@@H](CCC(N)=O)C(=O)N[C@@H](CC(N)=O)C(=O)N2CCC[C@H]2C(=O)N2CCC[C@H]2C(=O)N[C@@H](CCCCN)C(=O)N[C@@H](CCCCN)C(=O)N[C@@H](Cc2ccccc2)C(=O)N[C@@H](CO)C(=O)NCC(=O)N[C@@H](CCC(=O)O)C(=O)O)[C@@H](C)CC)NC(=O)CNC(=O)[C@H](CC(C)C)NC(=O)CNC(=O)[C@H](CO)NC(=O)[C@H](C(C)C)NC(=O)[C@H](CO)NC(=O)CNC1=O [TNPc BTT] (H-SPKMVQGSGCFGFPLDRIGSVSGLGCNRIMQNPPKKFSGE-OH; disulfide 10-26; N-terminus assumed) | 8.177 ± 0.1049 | 7.06e-09 | did not recover after 2 hours | 63.4 | 65.4 | 2.1 ± 1.5 | −10.8 | 62.1 ± 6.6 |
